Experiments:
[1] = tested on: pigweed; test: Test A postemergence; type: in vivo, Amaranthus retroflexus
Procedure, shortened: (§1)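 Compounds in non-phytotoxic solvent with surfactant applied as soil spray preemergence, or postemergence to plants 2-10 cm at one- to two-leaf stage, in loam/sand. After approximately 10 days in greenhouse, injury rated visually versus untreated controls, 0 (no effect) to 100 (complete control).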

[2] = tested on: soybean; test: Test C postemergence; type: in vivo, Glycine max; conditions: for Plant response rating (0 to 100), Soybean: postemergence; for Plant response rating, Soybean: Postemergence, scale 0 to 100 (0 no effect, 100 complete control)
Procedure, shortened: (§2)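 Sown in loam/sand → sprayed pre-emergence; or grown to 1–4 leaves in peat mix → sprayed post-emergence. Same solvent/surfactant formulation both ways. Greenhouse 13–15 d. Score 0–100 visual.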

[3] = tested on: morningglory; test: Test A preemergence; type: in vivo, Ipomoea spp.; conditions: for Morningglory plant response rating: 0 to 100 scale, 0 no effect, 100 complete control, approx. 10 days
Procedure, shortened: as §1

[4] = tested on: large (Lg) crabgrass; test: Test C postemergence; type: in vivo, Digitaria sanguinalis; conditions: for Plant response rating, Crabgrass, Large: Postemergence
Procedure, shortened: as §2

[5] = tested on: velvetleaf; test: Test C postemergence; type: in vivo, Abutilon theophrasti; conditions: for Plant response rating (0 to 100), Velvetleaf: postemergence; for Plant response rating, Velvetleaf: Postemergence, scale 0 to 100 (0 no effect, 100 complete control)
Procedure, shortened: as §2

[6] = tested on: wheat; test: Test A preemergence; type: in vivo, Triticum aestivum; conditions: for Wheat plant response rating: 0 to 100 scale, 0 no effect, 100 complete control, approx. 10 days
Procedure, shortened: as §1

[7] = tested on: oilseed rape; test: Test C postemergence; type: in vivo, Brassica napus; conditions: for Plant response rating (0 to 100), Oilseed Rape: postemergence; for Plant response rating, Oilseed Rape: Postemergence, scale 0 to 100 (0 no effect, 100 complete control)
Procedure, shortened: as §2

[8] = tested on: sedge, umbrella; test: Test B flooded paddy test; type: in vivo, Cyperus difformis; conditions: Flood, 250 g ai/ha; 0 to 100 scale where 0 is no effect and 100 is complete control
Procedure, shortened: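 Greenhouse flooded-pot test: compounds dosed into 3 cm standing water over 2-leaf plants, flood held constant. Rated visually after 13–15 days on 0–100 (complete control = 100); a dash marks no test result.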

[9] = tested on: pigweed; test: Test A preemergence; type: in vivo, Amaranthus retroflexus; conditions: for Pigweed plant response rating: 0 to 100 scale, 0 no effect, 100 complete control, approx. 10 days
Procedure, shortened: as §1

[10] = tested on: wheat; test: Test A postemergence; type: in vivo, Triticum aestivum
Procedure, shortened: as §1

[11] = tested on: yellow nutsedge; test: Test C postemergence; type: in vivo, Cyperus esculentus; conditions: for Plant response rating (0 to 100), Nutsedge, Yellow: postemergence; for Plant response rating, Nutsedge, Yellow: Postemergence, scale 0 to 100 (0 no effect, 100 complete control)
Procedure, shortened: as §2

[12] = tested on: giant foxtail; test: Test C postemergence; type: in vivo, Setaria faberii; conditions: for Plant response rating, Foxtail, Giant: Postemergence
Procedure, shortened: as §2

[13] = tested on: johnsongrass; test: Test C postemergence; type: in vivo, Sorghum halepense; conditions: for Plant response rating, Johnsongrass: Postemergence
Procedure, shortened: as §2

[14] = 125 g ai/ha, 0 to 100 scale where 0 is no effect and 100 is complete control
[15] = 500 g ai/ha, 0 to 100 scale, 0 no effect, 100 complete control
[16] = 31 g ai/ha, scale 0 to 100 (0 no effect, 100 complete control), 13 to 15 days
[17] = 62 g ai/ha, scale 0 to 100 (0 no effect, 100 complete control)
[18] = 1000 g ai/ha, 0 to 100 scale, 0 no effect, 100 complete control
[19] = 16 g ai/ha, postemergence, visual rating, scale 0 to 100 (0 no effect, 100 complete control), 13 to 15 days

With N#Cc1cccc(Oc2ncc(F)cn2)c1-n1cc(Br)cn1 [Compound 62] the “Plant response rating, Pigweed” value [1, 14] was 100, the “Plant response rating, Pigweed” value [1, 15] was 100 and the “Plant response rating (0 to 100), Soybean” value ([2]; 125 g ai/ha) was 95. For the same compound, the “Plant response rating (0 to 100), Soybean” value ([2]; 250 g ai/ha) was 95, the “Plant response rating, Soybean” value ([2]; 31 g ai/ha, 13 to 15 days) was 45 and the “Plant response rating, Soybean” value ([2]; 62 g ai/ha) was 85. For the same compound, the “Plant response rating, Morningglory” value [3, 14] was 0, the “Morningglory plant response rating” value ([3]; 500 g ai/ha) was 90 and the “Plant response rating (0 to 100), Crabgrass, Large” value ([4]; 125 g ai/ha, postemergence) was 10. For the same compound, the “Plant response rating (0 to 100), Crabgrass, Large” value ([4]; 250 g ai/ha, postemergence) was 35, the “Plant response rating, Crabgrass, Large” value [4, 16] was 5 and the “Plant response rating, Crabgrass, Large” value [4, 17] was 5. The “Plant response rating (0 to 100), Velvetleaf” value ([5]; 125 g ai/ha) was 75, the “Plant response rating (0 to 100), Velvetleaf” value ([5]; 250 g ai/ha) was 85 and the “Plant response rating, Velvetleaf” value ([5]; 31 g ai/ha, 13 to 15 days) was 20. The “Plant response rating, Velvetleaf” value ([5]; 62 g ai/ha) was 20, the “Plant response rating, Wheat” value [6, 14] was 0 and the “Wheat plant response rating” value ([6]; 500 g ai/ha) was 80. The “Plant response rating (0 to 100), Oilseed Rape” value ([7]; 125 g ai/ha) was 60, the “Plant response rating (0 to 100), Oilseed Rape” value ([7]; 250 g ai/ha) was 75 and the “Plant response rating, Oilseed Rape” value ([7]; 31 g ai/ha, 13 to 15 days) was 20. The “Plant response rating, Oilseed Rape” value ([7]; 62 g ai/ha) was 20, the “Plant response rating, Sedge, Umbrella” value [8] was 80 and the “Plant response rating, Pigweed” value [9, 14] was 100. For the same compound, the “Pigweed plant response rating” value ([9]; 500 g ai/ha) was 100, the “Plant response rating, Wheat” value [10, 14] was 20 and the “Plant response rating, Wheat” value [10, 15] was 100. The “Plant response rating (0 to 100), Nutsedge, Yellow” value ([11]; 125 g ai/ha) was 5, the “Plant response rating (0 to 100), Nutsedge, Yellow” value ([11]; 250 g ai/ha) was 15 and the “Plant response rating, Nutsedge, Yellow” value ([11]; 31 g ai/ha, 13 to 15 days) was 0. For the same compound, the “Plant response rating, Nutsedge, Yellow” value ([11]; 62 g ai/ha) was 5, the “Plant response rating (0 to 100), Foxtail, Giant” value ([12]; 125 g ai/ha, postemergence) was 20 and the “Plant response rating (0 to 100), Foxtail, Giant” value ([12]; 250 g ai/ha, postemergence) was 25. The “Plant response rating, Foxtail, Giant” value [12, 16] was 5, the “Plant response rating, Foxtail, Giant” value [12, 17] was 10 and the “Plant response rating (0 to 100), Johnsongrass” value ([13]; 125 g ai/ha, postemergence) was 10. The “Plant response rating (0 to 100), Johnsongrass” value ([13]; 250 g ai/ha, postemergence) was 15, the “Plant response rating, Johnsongrass” value [13, 16] was 5 and the “Plant response rating, Johnsongrass” value [13, 17] was 5.

For Clc1cnc(Oc2cccc(Br)c2-n2cc(Br)cn2)nc1 [Compound 65], the “Plant response rating, Pigweed” value [1, 18] was 100, the “Plant response rating (0 to 100), Soybean” value ([2]; 125 g ai/ha) was 85 and the “Plant response rating, Soybean” value ([2]; 31 g ai/ha, 13 to 15 days) was 40. The “Plant response rating, Soybean” value ([2]; 62 g ai/ha) was 60, the “Morningglory plant response rating” value ([3]; 1000 g ai/ha) was 100 and the “Crabgrass, Large plant response rating” value [4, 19] was 5. The “Plant response rating (0 to 100), Crabgrass, Large” value ([4]; 125 g ai/ha, postemergence) was 5, the “Plant response rating, Crabgrass, Large” value [4, 16] was 5 and the “Plant response rating, Crabgrass, Large” value [4, 17] was 5. For the same compound, the “Plant response rating (0 to 100), Velvetleaf” value ([5]; 125 g ai/ha) was 65, the “Plant response rating, Velvetleaf” value ([5]; 31 g ai/ha, 13 to 15 days) was 50 and the “Plant response rating, Velvetleaf” value ([5]; 62 g ai/ha) was 55. For the same compound, the “Wheat plant response rating” value ([6]; 1000 g ai/ha) was 30, the “Plant response rating (0 to 100), Oilseed Rape” value ([7]; 125 g ai/ha) was 90 and the “Plant response rating, Oilseed Rape” value ([7]; 31 g ai/ha, 13 to 15 days) was 25. The “Plant response rating, Oilseed Rape” value ([7]; 62 g ai/ha) was 60, the “Plant response rating, Sedge, Umbrella” value [8] was 95 and the “Pigweed plant response rating” value ([9]; 1000 g ai/ha) was 100. The “Plant response rating, Wheat” value [10, 18] was 60, the “Plant response rating (0 to 100), Nutsedge, Yellow” value ([11]; 125 g ai/ha) was 15 and the “Plant response rating, Nutsedge, Yellow” value ([11]; 31 g ai/ha, 13 to 15 days) was 5. The “Plant response rating, Nutsedge, Yellow” value ([11]; 62 g ai/ha) was 5, the “Foxtail, Giant plant response rating” value [12, 19] was 5 and the “Plant response rating (0 to 100), Foxtail, Giant” value ([12]; 125 g ai/ha, postemergence) was 10. The “Plant response rating, Foxtail, Giant” value [12, 16] was 10, the “Plant response rating, Foxtail, Giant” value [12, 17] was 10 and the “Johnsongrass plant response rating” value [13, 19] was 5. The “Plant response rating (0 to 100), Johnsongrass” value ([13]; 125 g ai/ha, postemergence) was 5, the “Plant response rating, Johnsongrass” value [13, 16] was 5 and the “Plant response rating, Johnsongrass” value [13, 17] was 5.
